Structures are written as SMILES. Several values for one entry are separate records, joined by “and”; a condition that tells them apart may be missing. Identical values can stand only once. Like-named read-outs stand apart in the source and are kept apart here.

In series [1] the target is T1, CD73 (cell membrane preparations of MDA-MB-231 cells) (Homo sapiens, UniProt P21589).
T1 construct: endogenous in cells; host or cells: MDA-MB-231 (human triple-negative breast cancer) membrane preparation
T1 sequence (P21589 27-574): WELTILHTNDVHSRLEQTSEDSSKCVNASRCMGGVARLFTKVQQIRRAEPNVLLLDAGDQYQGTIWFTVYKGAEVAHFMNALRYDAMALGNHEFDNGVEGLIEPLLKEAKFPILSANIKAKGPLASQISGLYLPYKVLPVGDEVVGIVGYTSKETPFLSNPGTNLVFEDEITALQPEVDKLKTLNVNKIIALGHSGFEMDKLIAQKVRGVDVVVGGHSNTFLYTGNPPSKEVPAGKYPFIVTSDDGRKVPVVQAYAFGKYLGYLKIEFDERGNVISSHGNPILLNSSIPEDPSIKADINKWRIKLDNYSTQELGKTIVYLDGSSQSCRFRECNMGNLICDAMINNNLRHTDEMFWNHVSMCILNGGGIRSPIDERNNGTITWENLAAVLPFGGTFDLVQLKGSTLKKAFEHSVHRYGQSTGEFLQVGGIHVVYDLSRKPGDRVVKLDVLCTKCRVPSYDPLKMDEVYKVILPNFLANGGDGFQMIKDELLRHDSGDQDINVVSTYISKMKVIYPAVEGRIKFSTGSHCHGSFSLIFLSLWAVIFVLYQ
Description: Kinetic rate index radioligand binding assay, estimation of residence time. An excerpt: Besides affinity, binding kinetics play a crucial role in determining in vivo tracer performance. The clinical CD73 inhibitor Quemliclustat has been reported to display a very long residence time. We therefore determined the kinetic rate index (KRI) of selected CD73 inhibitors using a radioligand binding assay. […] These comparatively long residence times indicate slow dissociation from the target, which may contribute to the sustained tumor retention of [^18F]1 observed in vivo. Another effect that might play a role is pharmacological inhibition of CD73 by the high concentration of the CD73 inhibitor used for blocking. This will lead to a strong reduction in adenosine concentrations, for example, in blood vessels and other tissues, which may change hemodynamics and drug distribution. […]
Cell membrane preparations of MDA-MB-231 cells were performed as previously described.^[9^] A dual point competition assay (at 20 min and 90 min) using [^3H]PSB-17230 was employed for the determination of kinetic rate index (KRI) in analogy to a published procedure,^[60^] determined at 25°C. The residence times were calculated by linear correlation based on a large database of previously determined KRI values and residence times of analogs.

The target of series [2] is T2, CD73 in human breast cancer samples (Homo sapiens, UniProt P21589).
T2 construct: cryosections of breast tumor samples as well as sentinel lymph node samples were investigated; from tissue; host or cells: primary breast tumors and sentinel lymph nodes of two patients, 6 µm cryosections
T2 sequence (P21589 27-574): T1 sequence (P21589 27-574)
Description: Autoradiography on human breast tumor and sentinel lymph node cryosections. It is filed as binding. The following applies: ∼1000‐fold excess of blocker with radiotracer. As for the experimental part: To test specific radiotracer binding to its target, we performed in situ autoradiography. [^18F]2 was applied onto cryosections of neighboring slides of tumor tissues from primary breast tumors from patient X (Figure 4A) and patient Y (Figure 4B), used for immunohistochemistry and AMPase activity determination. Sentinel LN from patient Y was incubated with [^18F]1 (Figure 4C).
FIGURE 4 Autoradiographic imaging of ^18F‐labeled CD73 tracer binding to tissue samples of breast tumors and sentinel lymph nodes. Primary breast tumor (A, B) and LN cryosections (C) were incubated with [^18F]2 or [^18F]1 in the absence (control) and in the presence of an unlabeled CD73 inhibitor, AMPCP (13) or JMS04‐14 (14), as indicated. The samples were processed for autoradiographic analysis, as described in the materials and methods section. The white dotted lines outline the tissue boundaries. (D). Structures of CD73 inhibitors applied as blockers in this study.
For the assessment of ^18F-labeled CD73 tracer binding to human tissues, cryosections of breast tumor samples as well as sentinel lymph node samples were investigated. Cryosections were thawed and pre-incubated for 15 min at room temperature in 2-[4-(2-hydroxyethyl)piperazin-1-yl]ethanesulfonic acid buffer (HEPES). […] Blocking compounds were prepared according to the molar activity of the radiolabeled tracers [^18F]MRS-4648 and [^18F]PSB-19427 aiming at a 1000-fold excess of the blocking agent. For each tissue sample, neighboring sections were incubated for 20 min at room temperature with a mixture of 50µL of the radiotracer and 50µL of the classical CD73 inhibitor AMPCP (25 nmol, in PBS), or JMS0414 (61 nmol, in HEPES), or HEPES buffer respectively. After incubation, slides were washed three times with PBS and Aqua bidest, mounted on a slide holder for the image acquisition, and covered with protection and scintillation foils. Digital autoradiography measurement of each slide was performed for 60 minutes (Micro Imager, Biospace, France). Acquired data were corrected for radioactive decay in reference to the start of the acquisition as well as the start of the incubation.

The subject of series [3] is MDA‐MB‐231 tumor. Description: PET imaging in MDA-MB-231 breast cancer xenograft model. The following applies: MDA‐MB‐231 model. It is filed as in vivo, NSG mice. As for the experimental part: Given the specificity of [^18F]1 and [^18F]2 and the promising in vivo biodistribution profile of [^18F]1, we established a small‐animal human breast tumor xenograft model in NSG mice subcutaneously implanted with MDA‐MB‐231 cells. […] For blocking studies, PSB‐12651 (15, Figure 6) or unlabeled 1 were used.
FIGURE 6 PET imaging data in an MDA‐MB‐231 tumor mouse model. (A). PET images, CT scans, and merged images of [^18F]2 in the MDA‐MB‐231 tumor mouse model 90 min after tracer injection. White arrows mark the tumor positions. (B). Quantitative PET analysis of [^18F]2 uptake: activity concentration of [^18F]2 in muscle and tumor tissues 90 min after tracer injection (left) and respective tumor‐to‐muscle ratio (right, n = 5 tumors). (C). PET‐CT images of [^18F]1 and [^18F]FDG in the MDA‐MB‐231 tumor mouse model, 260 min ([^18F]1), or 75 min ([^18F]FDG) after injection. […] White arrows mark the positions of tumors. (D). Quantitative PET analysis of [^18F]1 uptake: activity concentration of [^18F]1 and [^18F]FDG in muscle and tumor tissues (left) and tumor‐to‐muscle ratios (right) after 260 min. [^18F]1: n = 18 tumors, [^18F]1 plus unlabeled 1 block: n = 8 tumors, [^18F]1 plus compound 15 block: n = 6 tumors, [^18F]FDG: n = 18 tumors E. Ex vivo analysis of [^18F]1 uptake as measured by gamma counter: activity concentrations of [^18F]1 in muscle and tumor tissues after 260 min without and with blocking (left) and tumor‐to‐muscle ratios (right). [^18F]1: n = 6 tumors, [^18F]1 plus unlabeled 1 block: n = 6 tumors, [^18F]1 plus compound 15 block: n = 5 tumors.^# relative to the respective muscle, *relative to [^18F]1 without blocker, relative to the unblocked tumor; *<0.05; **<0.01, ***<0.001,^#<0.05; ^## <0.01, ^###<0.001, <0.05; <0.01, <0.001, ns: non‐significant, unpaired t‐test.
MDA-MB-231 cells were cultivated in DMEM/GlutaMAX, supplemented with 10 % fetal calf serum, 100 U/mL penicillin, and 100 µg/mL streptomycin and L-glutamine to a final concentration of 8 mmol/L. AsPC-1 cells were cultivated in RPMI, supplemented with 10 % fetal calf serum, 100 U/mL penicillin, and 100 µg/mL streptomycin and L-glutamine to a final concentration of 8 mmol/L. 5 x 10^6 MDA-MB-231 or 1x 10^6 AsPC-1 cells were injected subcutaneously into the shoulder region of 7 to 12 weeks old NSG (NOD.Cg-Prkdc^scid Il2rg^tm1Wjl/SzJ) mice (Charles River Laboratories). Two tumors were inoculated per animal, and growth was followed by digital caliper measurements (volume = ½ (length * width^2)).
Adult C57bl/6 (biodistribution study, 19.8±1.3 g) or tumor-bearing NSG mice (22.2±2.2 g) were anesthetized by isoflurane/O2, and one lateral tail vein was cannulated using a 27 G needle. A respective radiotracer (~ 390 kBq/g body weight) was injected as a bolus via the tail vein, and subsequent PET scanning was performed. A ~1000-fold excess of unlabeled JMS0414 (14 for [^18F]MRS-4648 ([^18F]2)), unlabeled PSB-19427 (1), or PSB-12651 (15) (for [^18F]PSB-19427 ([^18F]1)) was injected into a subgroup of tumor-bearing mice 10 min before radiotracer injection in the blocking studies. PET imaging studies were carried out using a submillimeter high resolution (0.7 mm full width at half-maximum) small animal scanner (32 module quadHIDAC, Oxford Positron Systems Ltd., Oxford, UK) with a uniform spatial resolution (<1 mm) over a large cylindrical field (165 mm diameter, 280 mm axial length). […]

Take `Nc1ncnc2c1ncn2[C@@H]1O[C@H](COP(=O)(O)CP(=O)(O)O)[C@@H](O)[C@H]1O` [AMPCP, reference compound]: the residence time in series [1] is 8.8 min. In series [2], the “Effect of co-incubated blocker on tissue-associated radioactivity” value is on record as “markedly reduced”. Take `Cn1c(=O)n([C@@H]2O[C@H](COP(=O)(O)CP(=O)(O)O)[C@@H](O)[C@H]2O)cc/c1=N/OCc1ccccc1` [JMS04-14, reference compound]: in series [2], the “Effect of co-incubated blocker on tissue-associated radioactivity” value is given as “markedly reduced”.

In the case of `O=P(O)(O)CP(=O)(O)OC[C@H]1O[C@@H](n2cnc3c(NCc4ccccc4)nc(Cl)nc32)[C@H](O)[C@@H]1O` [PSB-12651, reference compound], in series [1] (estimated from kinetic rate index, [3H]PSB-17230, 25 °C, read-out: Residence time), the residence time was 31 min. Besides, the “Effect of blocker pre-treatment on tumor-to-muscle ratio of [18F]1” value in series [3] (~1000-fold excess injected 10 min before tracer) was “markedly reduced”. In the case of `O=C[C@H]([18F])[C@@H](O)[C@H](O)[C@H](O)CO` [[^18F]FDG, 2‐deoxy‐2‐[^18F]fluoro‐D‐glucose, reference compound], the Tumor-to-muscle ratio in series [3] ([18F]FDG PET, 75 min after injection) was 2.04 ± 1.0 and 2.04.
